Test results from ChEMBL document CHEMBL5678807, “A selective jumonji H3K27 demethylase inhibitor modulates the proinflammatory macrophage response” (Nature, 2012).

Key:
Macrophage [1] = assay: Antiinflammatory activity in human primary macrophages assessed as effect on LPS-induced IFNA4 gene expression at 30 uM measured after 2 hrs by RT-PCR array (reference value: 28 a.u.); format: functional
Macrophage [2] = assay: Antiinflammatory activity in human primary macrophages assessed as effect on LPS-induced TNFSF10 gene expression at 30 uM measured after 2 hrs by RT-PCR array (reference value: 221027 a.u.); format: functional
Macrophage [3] = assay: Antiinflammatory activity in human primary macrophages assessed as effect on LPS-induced CD70 gene expression at 30 uM measured after 2 hrs by RT-PCR array (reference value: 2415 a.u.); format: functional
Macrophage [4] = assay: Antiinflammatory activity in human primary macrophages assessed as effect on LPS-induced GDF9 gene expression at 30 uM measured after 2 hrs by RT-PCR array (reference value: 113 a.u.); format: functional
Macrophage [5] = assay: Antiinflammatory activity in human primary macrophages assessed as effect on LPS-induced IFNA1 gene expression at 30 uM measured after 2 hrs by RT-PCR array (reference value: 462 a.u.); format: functional
Macrophage [6] = assay: Antiinflammatory activity in human primary macrophages assessed as effect on LPS-induced IFNK gene expression at 30 uM measured after 2 hrs by RT-PCR array (reference value: 724 a.u.); format: functional
Macrophage [7] = assay: Antiinflammatory activity in human primary macrophages assessed as effect on LPS-induced TGFB2 gene expression at 30 uM measured after 2 hrs by RT-PCR array (reference value: 7625 a.u.); format: functional
Macrophage [8] = assay: Antiinflammatory activity in human primary macrophages assessed as effect on LPS-induced LTA gene expression at 30 uM measured after 2 hrs by RT-PCR array (reference value: 11322 a.u.); format: functional
Macrophage [9] = assay: Antiinflammatory activity in human primary macrophages assessed as effect on LPS-induced IL15 gene expression at 30 uM measured after 2 hrs by RT-PCR array (reference value: 62425 a.u.); format: functional
Macrophage [10] = assay: Antiinflammatory activity in human primary macrophages assessed as effect on LPS-induced FAM3B gene expression at 30 uM measured after 2 hrs by RT-PCR array (reference value: 996 a.u.); format: functional
Macrophage [11] = assay: Antiinflammatory activity in human primary macrophages assessed as effect on LPS-induced IL18 gene expression at 30 uM measured after 2 hrs by RT-PCR array (reference value: 153374 a.u.); format: functional
Macrophage [12] = assay: Antiinflammatory activity in human primary macrophages assessed as effect on LPS-induced CSF1 gene expression at 30 uM measured after 2 hrs by RT-PCR array (reference value: 287895 a.u.); format: functional
Macrophage [13] = assay: Antiinflammatory activity in human primary macrophages assessed as effect on LPS-induced TGFB1 gene expression at 30 uM measured after 2 hrs by RT-PCR array (reference value: 72816 a.u.); format: functional
Histone deacetylase 8 = Histone deacetylase 8 (Homo sapiens, UniProt Q9BY41); assay: Inhibition of human HDAC8 by FLINT assay
[14] = Antagonist activity at human 5-HT3 by intracellular Ca fluorescence assay; format: cell-based
[15] = target: T1, Muscarinic acetylcholine receptor M1 (Homo sapiens, UniProt P11229); assay: Agonist activity at human CHRM1 by intracellular Ca fluorescence assay; format: functional, cell-based
T1 sequence (P11229 whole entry): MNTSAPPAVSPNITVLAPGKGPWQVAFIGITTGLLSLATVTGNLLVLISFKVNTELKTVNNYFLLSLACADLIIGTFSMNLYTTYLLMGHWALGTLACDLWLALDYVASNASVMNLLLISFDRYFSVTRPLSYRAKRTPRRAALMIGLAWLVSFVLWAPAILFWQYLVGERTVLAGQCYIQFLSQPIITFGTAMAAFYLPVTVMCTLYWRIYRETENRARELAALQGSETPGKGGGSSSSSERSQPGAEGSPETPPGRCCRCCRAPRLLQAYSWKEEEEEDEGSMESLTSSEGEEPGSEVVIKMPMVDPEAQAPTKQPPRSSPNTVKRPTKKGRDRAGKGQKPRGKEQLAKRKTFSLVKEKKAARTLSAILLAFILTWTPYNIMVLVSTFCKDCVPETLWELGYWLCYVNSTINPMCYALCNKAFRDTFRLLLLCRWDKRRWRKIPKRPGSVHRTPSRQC

hERG (KCNH2) = hERG (KCNH2) (Homo sapiens, UniProt Q12809); assay: Blockade of human KCNH2 by electrophysiology assay; format: toxicity
Sequence of hERG (KCNH2) (Q12809 whole entry): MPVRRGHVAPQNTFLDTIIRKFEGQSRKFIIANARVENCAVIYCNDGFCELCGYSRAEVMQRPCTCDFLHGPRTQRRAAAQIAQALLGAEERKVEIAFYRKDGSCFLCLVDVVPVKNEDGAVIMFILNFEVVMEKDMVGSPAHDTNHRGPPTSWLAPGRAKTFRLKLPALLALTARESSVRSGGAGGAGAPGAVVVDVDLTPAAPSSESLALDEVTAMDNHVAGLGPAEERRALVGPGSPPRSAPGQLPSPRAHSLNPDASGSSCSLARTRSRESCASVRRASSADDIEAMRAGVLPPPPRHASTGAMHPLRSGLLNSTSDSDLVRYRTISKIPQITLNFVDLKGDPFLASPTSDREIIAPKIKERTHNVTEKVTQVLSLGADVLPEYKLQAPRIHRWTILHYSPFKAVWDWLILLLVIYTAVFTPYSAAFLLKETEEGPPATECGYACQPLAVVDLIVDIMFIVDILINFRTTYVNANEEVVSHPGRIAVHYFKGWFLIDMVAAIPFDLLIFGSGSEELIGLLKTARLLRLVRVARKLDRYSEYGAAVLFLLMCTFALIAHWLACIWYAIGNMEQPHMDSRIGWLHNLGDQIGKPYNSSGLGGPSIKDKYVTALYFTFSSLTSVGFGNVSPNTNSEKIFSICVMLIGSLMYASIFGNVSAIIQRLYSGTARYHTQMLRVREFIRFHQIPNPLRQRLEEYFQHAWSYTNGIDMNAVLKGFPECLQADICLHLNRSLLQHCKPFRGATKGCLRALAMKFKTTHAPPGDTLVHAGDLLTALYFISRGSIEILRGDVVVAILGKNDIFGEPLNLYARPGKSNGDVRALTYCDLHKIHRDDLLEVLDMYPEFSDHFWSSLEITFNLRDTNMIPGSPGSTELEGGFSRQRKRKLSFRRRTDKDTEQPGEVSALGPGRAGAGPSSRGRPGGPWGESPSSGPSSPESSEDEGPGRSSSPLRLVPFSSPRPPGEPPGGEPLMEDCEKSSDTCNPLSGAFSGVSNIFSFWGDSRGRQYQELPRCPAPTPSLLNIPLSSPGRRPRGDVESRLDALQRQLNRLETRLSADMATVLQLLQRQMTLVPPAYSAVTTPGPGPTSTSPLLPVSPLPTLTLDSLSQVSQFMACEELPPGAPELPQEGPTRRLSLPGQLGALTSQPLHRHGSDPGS

[16] = target: Beta-2 adrenergic receptor (Homo sapiens, UniProt P07550); assay: Agonist activity at human beta2 adrenoceptor by TR-FRET assay; format: functional
Sequence of Beta-2 adrenergic receptor (P07550 whole entry): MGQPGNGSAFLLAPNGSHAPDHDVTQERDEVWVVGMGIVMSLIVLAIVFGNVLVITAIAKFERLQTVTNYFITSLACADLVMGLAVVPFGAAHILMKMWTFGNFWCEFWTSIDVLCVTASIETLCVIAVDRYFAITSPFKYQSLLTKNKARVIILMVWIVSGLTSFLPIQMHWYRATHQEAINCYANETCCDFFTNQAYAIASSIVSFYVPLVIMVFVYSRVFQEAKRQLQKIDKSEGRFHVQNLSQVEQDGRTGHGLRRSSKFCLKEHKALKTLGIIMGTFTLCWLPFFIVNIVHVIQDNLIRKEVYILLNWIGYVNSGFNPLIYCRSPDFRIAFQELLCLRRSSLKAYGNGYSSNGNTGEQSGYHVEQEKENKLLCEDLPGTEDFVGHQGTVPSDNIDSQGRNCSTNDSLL

[17] = target: T2, 5-hydroxytryptamine receptor 2C (Homo sapiens, UniProt P28335); assay: Agonist activity at human 5-HT2C by intracellular Ca luminescence assay; format: functional, cell-based
T2 sequence (P28335 whole entry): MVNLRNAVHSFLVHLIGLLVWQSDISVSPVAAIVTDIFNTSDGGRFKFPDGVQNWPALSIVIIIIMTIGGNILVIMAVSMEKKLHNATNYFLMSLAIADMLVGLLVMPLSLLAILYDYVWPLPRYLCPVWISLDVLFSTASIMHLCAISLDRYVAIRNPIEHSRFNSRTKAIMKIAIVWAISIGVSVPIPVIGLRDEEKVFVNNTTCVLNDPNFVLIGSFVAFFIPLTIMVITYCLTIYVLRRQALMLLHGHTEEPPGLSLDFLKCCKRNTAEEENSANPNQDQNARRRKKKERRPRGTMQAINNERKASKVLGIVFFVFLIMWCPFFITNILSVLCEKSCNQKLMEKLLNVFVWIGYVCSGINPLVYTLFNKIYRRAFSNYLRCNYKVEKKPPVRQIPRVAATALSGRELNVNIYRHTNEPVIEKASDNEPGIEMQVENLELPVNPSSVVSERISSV

Histone deacetylase 9 = Histone deacetylase 9 (Homo sapiens, UniProt Q9UKV0); assay: Inhibition of human HDAC9 by FLINT assay
Sequence of Histone deacetylase 9 (Q9UKV0 whole entry): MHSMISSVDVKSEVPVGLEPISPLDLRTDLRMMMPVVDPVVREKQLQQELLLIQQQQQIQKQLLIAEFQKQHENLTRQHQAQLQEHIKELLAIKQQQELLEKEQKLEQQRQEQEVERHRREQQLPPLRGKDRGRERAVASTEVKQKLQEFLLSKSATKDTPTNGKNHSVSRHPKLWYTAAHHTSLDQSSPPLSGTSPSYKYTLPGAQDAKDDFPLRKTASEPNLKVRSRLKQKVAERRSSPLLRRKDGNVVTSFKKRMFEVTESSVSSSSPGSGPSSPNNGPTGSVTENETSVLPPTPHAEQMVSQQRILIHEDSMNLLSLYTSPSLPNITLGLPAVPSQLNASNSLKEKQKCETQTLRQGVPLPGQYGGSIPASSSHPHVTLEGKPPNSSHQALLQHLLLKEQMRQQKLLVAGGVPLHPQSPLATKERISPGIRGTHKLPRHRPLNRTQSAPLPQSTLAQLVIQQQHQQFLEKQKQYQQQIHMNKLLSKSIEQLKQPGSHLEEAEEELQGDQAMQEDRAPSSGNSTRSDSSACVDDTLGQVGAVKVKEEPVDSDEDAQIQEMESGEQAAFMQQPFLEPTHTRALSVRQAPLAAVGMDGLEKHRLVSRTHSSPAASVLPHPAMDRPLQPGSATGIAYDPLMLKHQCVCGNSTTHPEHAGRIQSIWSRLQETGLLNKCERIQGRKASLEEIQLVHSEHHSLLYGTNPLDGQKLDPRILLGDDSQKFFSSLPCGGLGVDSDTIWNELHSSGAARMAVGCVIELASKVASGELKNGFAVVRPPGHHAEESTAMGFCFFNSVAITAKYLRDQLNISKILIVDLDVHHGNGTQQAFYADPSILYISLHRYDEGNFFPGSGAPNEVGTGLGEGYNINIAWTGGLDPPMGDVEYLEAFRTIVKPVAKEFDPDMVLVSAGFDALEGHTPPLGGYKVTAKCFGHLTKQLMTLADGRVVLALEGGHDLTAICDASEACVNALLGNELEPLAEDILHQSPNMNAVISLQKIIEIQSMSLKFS

Histone deacetylase 5 = Histone deacetylase 5 (Homo sapiens, UniProt Q9UQL6); assay: Inhibition of human HDAC5 by FLINT assay
D(1A) dopamine receptor = D(1A) dopamine receptor (Homo sapiens, UniProt P21728); assay: Antagonist activity at human dopamine 1 receptor by TR-FRET assay; format: functional
Sequence of D(1A) dopamine receptor (P21728 whole entry): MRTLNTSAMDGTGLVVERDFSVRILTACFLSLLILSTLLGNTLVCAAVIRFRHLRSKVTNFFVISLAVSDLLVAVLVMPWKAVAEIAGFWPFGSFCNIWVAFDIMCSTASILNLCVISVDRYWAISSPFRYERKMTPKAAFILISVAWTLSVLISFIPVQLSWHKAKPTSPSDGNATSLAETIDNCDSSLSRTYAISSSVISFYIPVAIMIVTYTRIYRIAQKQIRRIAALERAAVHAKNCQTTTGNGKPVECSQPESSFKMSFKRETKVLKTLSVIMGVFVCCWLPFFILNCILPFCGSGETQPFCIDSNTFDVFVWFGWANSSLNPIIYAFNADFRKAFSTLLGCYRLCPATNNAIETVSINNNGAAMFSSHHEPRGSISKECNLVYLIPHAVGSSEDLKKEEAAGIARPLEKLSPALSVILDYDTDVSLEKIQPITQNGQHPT

[18] = target: Kappa-type opioid receptor (Homo sapiens, UniProt P41145); assay: Antagonist activity at human OPRK-1 by SPA; format: functional
Sequence of Kappa-type opioid receptor (P41145 whole entry): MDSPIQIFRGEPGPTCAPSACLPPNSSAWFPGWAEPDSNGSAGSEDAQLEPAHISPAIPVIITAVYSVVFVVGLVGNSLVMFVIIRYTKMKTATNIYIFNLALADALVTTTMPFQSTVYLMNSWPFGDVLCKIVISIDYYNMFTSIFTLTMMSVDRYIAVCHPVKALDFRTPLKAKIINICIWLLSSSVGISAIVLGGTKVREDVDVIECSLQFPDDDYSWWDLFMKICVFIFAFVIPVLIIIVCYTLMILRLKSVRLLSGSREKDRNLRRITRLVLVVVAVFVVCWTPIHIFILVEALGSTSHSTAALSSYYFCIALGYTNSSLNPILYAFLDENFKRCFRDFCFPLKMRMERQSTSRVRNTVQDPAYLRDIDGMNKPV

[19] = target: Sodium-dependent serotonin transporter (Homo sapiens, UniProt P31645); assay: Binding affinity to human SERT by SPA
[20] = target: Potassium voltage-gated channel subfamily A member 5 (Homo sapiens, UniProt P22460); assay: Blockade of human Kv1.5 by electrophysiology assay
Sequence of Potassium voltage-gated channel subfamily A member 5 (P22460 whole entry): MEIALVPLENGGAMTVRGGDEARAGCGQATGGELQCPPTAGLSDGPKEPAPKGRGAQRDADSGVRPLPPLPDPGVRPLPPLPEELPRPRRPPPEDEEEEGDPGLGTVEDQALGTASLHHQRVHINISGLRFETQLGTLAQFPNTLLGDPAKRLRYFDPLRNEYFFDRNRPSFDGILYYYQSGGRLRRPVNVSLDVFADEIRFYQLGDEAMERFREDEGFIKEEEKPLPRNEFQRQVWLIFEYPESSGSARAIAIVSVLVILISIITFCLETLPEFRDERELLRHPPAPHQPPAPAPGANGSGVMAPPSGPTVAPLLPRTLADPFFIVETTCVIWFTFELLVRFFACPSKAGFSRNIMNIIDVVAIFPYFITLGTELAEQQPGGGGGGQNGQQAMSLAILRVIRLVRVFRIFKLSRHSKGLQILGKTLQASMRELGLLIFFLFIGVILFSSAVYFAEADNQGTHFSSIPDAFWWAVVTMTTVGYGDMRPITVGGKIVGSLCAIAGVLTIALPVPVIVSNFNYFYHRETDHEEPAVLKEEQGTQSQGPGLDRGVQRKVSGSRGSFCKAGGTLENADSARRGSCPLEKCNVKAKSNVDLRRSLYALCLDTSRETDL

[21] = target: Alpha-2C adrenergic receptor (Homo sapiens, UniProt P18825); assay: Agonist activity at human alpha 2C adrenoceptor by TR-FRET assay
Sequence of Alpha-2C adrenergic receptor (P18825 whole entry): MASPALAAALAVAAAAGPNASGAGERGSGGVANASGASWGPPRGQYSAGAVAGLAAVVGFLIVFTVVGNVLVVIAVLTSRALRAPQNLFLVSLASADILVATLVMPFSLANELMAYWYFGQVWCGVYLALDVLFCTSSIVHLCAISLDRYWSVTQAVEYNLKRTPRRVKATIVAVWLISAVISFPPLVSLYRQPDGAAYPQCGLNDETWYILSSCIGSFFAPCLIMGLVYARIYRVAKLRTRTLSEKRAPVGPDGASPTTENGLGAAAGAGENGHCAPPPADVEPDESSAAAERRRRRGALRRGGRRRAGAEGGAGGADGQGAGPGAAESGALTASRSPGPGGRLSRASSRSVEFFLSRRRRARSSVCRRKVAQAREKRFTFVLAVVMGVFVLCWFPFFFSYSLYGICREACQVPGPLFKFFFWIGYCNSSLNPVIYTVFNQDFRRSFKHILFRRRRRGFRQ

[22] = target: Lysine-specific demethylase 4D (Homo sapiens, UniProt Q6B0I6); assay: Inhibition of human JmjD2d using H3K27(me3) as substrate preincubated for 10 mins followed by substrate addition and measured after 7 mins in presence of alpha-KG by RapidFire Mass Spectrometry
Sequence of Lysine-specific demethylase 4D (Q6B0I6 whole entry): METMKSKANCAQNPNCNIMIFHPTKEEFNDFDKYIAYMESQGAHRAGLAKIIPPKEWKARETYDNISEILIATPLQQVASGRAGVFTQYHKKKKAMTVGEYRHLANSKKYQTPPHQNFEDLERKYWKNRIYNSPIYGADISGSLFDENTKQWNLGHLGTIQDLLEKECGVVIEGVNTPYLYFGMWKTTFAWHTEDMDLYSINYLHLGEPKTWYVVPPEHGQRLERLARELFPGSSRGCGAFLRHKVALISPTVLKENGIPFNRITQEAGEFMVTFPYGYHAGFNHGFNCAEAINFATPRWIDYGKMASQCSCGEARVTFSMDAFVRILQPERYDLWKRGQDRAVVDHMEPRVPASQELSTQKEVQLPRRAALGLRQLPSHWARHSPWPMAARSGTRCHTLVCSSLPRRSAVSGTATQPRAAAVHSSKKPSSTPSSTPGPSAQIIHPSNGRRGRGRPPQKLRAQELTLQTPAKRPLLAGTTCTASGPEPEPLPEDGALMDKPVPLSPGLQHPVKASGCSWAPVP

Structure (SMILES)	Activity (Macrophage [1])	Activity (Macrophage [2])	Activity (Macrophage [3])	Activity (Macrophage [4])	Activity (Macrophage [5])	Activity (Macrophage [6])	Activity (Macrophage [7])	Activity (Macrophage [8])	Activity (Macrophage [9])	Activity (Macrophage [10])	Activity (Macrophage [11])	Activity (Macrophage [12])	Activity (Macrophage [13])	XC50 (Histone deacetylase 8)	XC50 [14]	XC50 [15]	XC50 (hERG (KCNH2))	XC50 [16]	XC50 [17]	XC50 (Histone deacetylase 9)	other results
CCOC(=O)CCNc1cc(N2CCc3ccccc3CC2)nc(-c2ccccn2)n1	25 a.u.	39793 a.u.	334 a.u.	15 a.u.	285 a.u.	3510 a.u.	3422 a.u.	708 a.u.	4562 a.u.	9 a.u.	74923 a.u.	140386 a.u.	50103 a.u.	–	–	–	–	–	–	–	–
O=C(O)CCNc1cc(N2CCc3ccccc3CC2)nc(-c2ccccn2)n1	–	–	–	–	–	–	–	–	–	–	–	–	–	> 300 µM	> 4.3 µM	> 16 µM	8 µM	> 32 µM	> 40 µM	> 300 µM	XC50 (Histone deacetylase 5): > 300 µM; XC50 (D(1A) dopamine receptor): > 32 µM; XC50 [18]: 50 µM; XC50 [19]: > 100 µM; XC50 [20]: > 50 µM; XC50 [21]: > 32 µM; IC50 [22]: 79 µM
O=C(O)CCNc1cc(N2CCc3ccccc3CC2)nc(-c2cccnc2)n1	–	–	–	–	–	–	–	–	–	–	–	–	–	> 300 µM	25 µM	> 16 µM	> 50 µM	> 32 µM	> 40 µM	> 300 µM	XC50 (Histone deacetylase 5): > 300 µM; XC50 (D(1A) dopamine receptor): > 32 µM; XC50 [18]: 50 µM; XC50 [19]: > 100 µM; XC50 [20]: > 50 µM; XC50 [21]: > 32 µM; IC50 [22]: > 100 µM
CCOC(=O)CCNc1cc(N2CCc3ccccc3CC2)nc(-c2cccnc2)n1	1 a.u.	132521 a.u.	1003 a.u.	64 a.u.	835 a.u.	339 a.u.	4816 a.u.	9224 a.u.	40115 a.u.	466 a.u.	185197 a.u.	211785 a.u.	49233 a.u.	–	–	–	–	–	–	–	–
